These results are taken from patent US20260062407A1, “PEROXIREDOXIN 3 INHIBITORS AND METHODS OF USE FOR TREATING CANCER” (WAKE FOREST UNIVERSITY HEALTH SCIENCES, priority 2022, published 2026).

Series [1] has as its system SK-OV-3 ovarian cancer cells. The series is described as follows: Cellular Activity Assay (cytotoxicity, crystal violet). Type of series: cell-based. Particulars: Homo sapiens; SK-OV-3 cells, 48 hr treatment, 0.1-100 μM, crystal violet absorbance at 540 nm. The source says: To test the activity of compounds, two complimentary assays were used as described below. The Biochemical PRX3 Inhibition Assay tests the ability of each compound to crosslink PRX3 in a simple, in vitro system. In the Cellular Activity Assay, we are testing the ability of compounds to kill SK-OV-3 ovarian cancer cells.
The Cellular Activity Assay measures the EC50 of each compound in human SK-OV-3 ovarian cancer cells TS to be taken into the cell, transported to the mitochondria, and crosslink PRX3.
The cytotoxicity of compounds was measured as described in Nelson et al. (2021) Antioxidants (Basel) 10, 150; Cunniff et al. (2015) PloS one 10, e0127310; and Newick et al. (2012)PloS one 7, e39404. SK-OV-3 is an adherent, epithelial, adenocarcinoma cell line obtained from ATCC (ref #: HTB-77). SK-OV-3 cells are resistant to the commonly used chemotherapeutics, cis-platinum and doxorubicin. For this PRX3 crosslinking assay, SK-OV-3 cells were plated in a 96-well plate. After 24 h recovery, the cells were treated for 48 hr with multiple concentrations of each compound ranging from 0.1-100 μM.
Cells were washed with PBS to remove dead cells and the remaining live cells were fixed with 3.0% formaldehyde and stained with 0.1% crystal violet. The amount of crystal violet was determined by reading the absorbance at 540 nm (crystal violet dye dissolved in 100% methanol) using a plate reader. […]

The nature of another series: Solubility Assay (HPLC). The class given is physicochemical. As to conditions: 20 mM HEPES, 100 mM NaCl, pH 7.5, 18-24 hours at ambient temperature. As to the method: A 20 mM stock solution was made for each compound in DMSO. To measure solubility, 0.03-0.05 mL of the stock was added to 0.27 mL 20 mM HEPES, 100 mM NaCl, pH 7.5. The solution was mixed and rotated 18-24 hours at ambient temperature. The next day, solutions were centrifuged for 10 min at 20,000×g at 24° C. to remove insoluble, solid material. Next, 100 μL of the supernatant containing the soluble compound was added to 900 μL DMSO and High Performance Liquid Chromatography was performed as described in Table 1 and either HPLC gradient 1 (Table 2) or HPLC gradient 2 (Table 3). For each analog, a 200 μM standard and a 20 μM standard were prepared and run in parallel (standards were dissolved completely in 100% DMSO). The amount of compound in the experimental sample was calculated by comparing the area under the curve for compound peak to the area for the closest standard and correcting for dilution.

Series [2] has as its system Enterococcus hirae (ATCC #10541). In words: Antimicrobial Activity Assay (MIC). The class given is cell-based. How it is done: The overnight growth was then diluted into growth media to make a single solution of E. hirae with a final optical density at 600 nm=0.02 AU. A 20 mM stock solution of Thiostrepton in DMSO was made and used to make multiple dilutions of TS in DMSO. Each TS dilution (0.1 mL) was then added to a test tube containing 10 mL of the diluted E. hirae and grown at 37° C. overnight while shaking at 180 rpm. The next morning, each tube was visually inspected to determine if the cells grew. Final concentrations tested were 0.120, 0.090, 0.075, 0.060, 0.045, 0.030, and 0.015 μM TS. […] Three replicates were made on three separate days (n=9). […] For TS analogs, the dilute E. hirae was treated with 20 μM final concentration of each analog (three replicates each). […] DMSO was used as a positive control (complete cell growth) and 20 μM thiostrepton was used as a negative control.

In the next series the test system is 578 cancer cells lines. As to conditions: of 578 cancer cell lines tested; cited from earlier work.

In series [1], `C=C(NC(=O)c1csc(N2CCC(NC(=O)CC3CCOCC3)CC2)n1)C(=O)NC(=C)C(=O)OC` [Compound 51, Methyl 2-(2-(2-(4-(2-(tetrahydro-2H-pyran-4-yl)acetamido)piperidin-1-yl)thiazole-4-carboxamido)acrylamido)acrylate] registered an EC50 of 10 to 25 µM. In addition, in “Solubility Assay (HPLC)”, the Solubility result is listed as “+ (<0.1 mM)”. In the case of `C=C(NC(=O)C(=C)NC(=O)c1csc(C2=N[C@@H]3c4csc(n4)[C@H]4NC(=O)c5csc(n5)[C@H]([C@](C)(O)[C@@H](C)O)NC(=O)[C@H]5CSC(=N5)/C(=C/C)NC(=O)[C@H]([C@@H](C)O)NC(=O)c5csc(n5)[C@]3(CC2)NC(=O)[C@H](C)NC(=O)C(=C)NC(=O)[C@H](C)NC(=O)[C@H]([C@@H](C)CC)N[C@@H]2C=Cc3c([C@H](C)O)cc(nc3[C@H]2O)C(=O)O[C@@H]4C)n1)C(N)=O` [TS, Thiostrepton], in series [2] (E. hirae, overnight at 37° C., n=9), the “TS concentrations at which complete growth was observed” value was at most 0.030 µM. Moreover, in series [2] (Enterococcus hirae, ATCC10541, read-out: TS concentrations at which no growth was observed (MIC)), the MIC is at least 0.045 µM. For the compound `C=C(NC(=O)C(=C)NC(=O)c1csc(C2=N[C@@H]3c4csc(n4)[C@H]4NC(=O)c5csc(n5)[C@H]([C@](C)(O)[C@@H](C)O)NC(=O)[C@H]5CSC(=N5)/C(=C/C)NC(=O)[C@H]([C@@H](C)O)NC(=O)c5csc(n5)[C@]3(CC2)NC(=O)[C@H](C)NC(=O)C(=C)NC(=O)[C@H](C)NC(=O)[C@H]([C@@H](C)CC)N[C@@H]2C=Cc3c([C@H](C)O)cc(nc3[C@H]2O)C(=O)O[C@@H]4C)n1)C(N)=O` [Thiostrepton (TS), Thiostrepton], the “number of tumor cell lines with meaningful efficacy” value in the series on 578 cancer cells lines is 403.

The term EC50 denotes the concentration that produces a half-maximal response. High values mean a need for much substance, low ones an effect from little substance.
